For 68 molecules, IC50 results are on record in ChEMBL document CHEMBL3301448, “MMV Malaria Box screening against Toxoplasma gondii and Entamoeba histolytica”.

For assay [1], the system named is Toxoplasma gondii. Kind of assay: MMV: A total of 100ul of inoculum was added to each well (parasite/cell ratio, ~10:1; final volume, 200 ul). Six hours after inoculation, nonadherent parasites were removed, and 100 ul of complete DMEM (1% penicillin-streptomycin, 3% FBS) supplemented with inhibitors at different concentrations (2-fold serial dilutions starting from 30 uM) was added to all except the negative-control wells. Positive controls, consisting of pyrimethamine (PYR) and sulfadiazine (SDZ) (20-mg/ml stocks in DMSO), were tested at a 2mg/ml final concentration. Each test was performed in triplicate. In kind it is functional, organism-based. The conditions noted are these: 6 h.

Assay [2] relates to Entamoeba histolytica. Kind of assay: MMV: Primary screening was performed with each compound at a 30 uM final concentration and in triplicate in sealed 96-well polystyrene microtiter plates. Parasite inocula (100 ul) comprising 20000 parasites/ml were added to each well and grown at 37 degrees C in a humidified atmosphere of 5% CO2 for 72 h. Positive controls consisted of metronidazole at 1 mg/ml. The growth of E. histolytica trophozoites in each well was determined microscopically by measuring the diameters of the confluent cells in drug-containing wells relative to those in the nega- tive-control wells. The class given is functional, organism-based.

One may read the IC50 as the point on the concentration scale where inhibition reaches its midpoint. Consider `CC(C)=CCN1CCC(C(=O)Nc2ccc(-c3nc4ccccc4[nH]3)cc2)CC1`, for which the IC50 in assay [1] and in assay [2] was greater than 30 µM each time.
On to `CCc1ccc(Nc2cc(C)nc3nc(C)nn23)cc1`, for which the IC50 in assay [1] and in assay [2] was greater than 30 µM in each case.
For the molecule `COc1ccccc1CNC(=O)C1c2ccccc2C(=O)N(CC(C)C)C1c1cccs1` (stereo unspecified), the IC50 in assay [1] and in assay [2] was greater than 30 µM in each case.
For `CCCc1c(C)nc2ccccc2c1O`, the IC50 in assay [1] and in assay [2] was greater than 30 µM throughout.
On to `Cc1cc(N2CCN(C3CCCC3)CC2)n2c(nc3ccccc32)c1C#N`, for which the IC50 in assay [1] and in assay [2] was greater than 30 µM in each case.
Regarding `Cc1cc(N(C)C)nc(Nc2ccc(NC(=O)Nc3ccccc3)cc2)n1`, the IC50 in assay [1] and in assay [2] was greater than 30 µM in each case.
On to `CCOC(=O)c1c(NC(=O)c2ccccc2)sc2c(O)c(CN(CC)CC)ccc12`, for which the IC50 in assay [1] and in assay [2] was greater than 30 µM throughout.
As to `COc1ccc(C2c3ccc4ccccc4c3Oc3ncn(CCCn4ccnc4)c(=N)c32)cc1OC` (stereo unspecified), the IC50 in assay [1] and in assay [2] was greater than 30 µM throughout.
For the molecule `COc1ccc(-c2nc(NC(=O)CS(=O)(=O)c3ccc(F)cc3)sc2C)cc1`, the IC50 in assay [1] and in assay [2] was greater than 30 µM throughout.
On to `CCOc1cccc(C(=O)Nc2ccc(-c3nc4ccccc4[nH]3)cc2)c1`, for which the IC50 in assay [1] and in assay [2] was greater than 30 µM each time.
For the molecule `CN1CCN(c2nc(Nc3ccc(O)cc3)nc3ccccc23)CC1`, the IC50 in assay [1] and in assay [2] was greater than 30 µM throughout.
Turning to `CCOC(=O)c1cnc2ccc(Cl)cc2c1NCCCN(C)C`, the IC50 in assay [1] and in assay [2] was greater than 30 µM in each case.
Regarding `Cc1ccc(CN2CCC(C(=O)Nc3ccc(-c4cc5ccccc5[nH]4)cc3)CC2)o1`, the IC50 in assay [1] and in assay [2] was greater than 30 µM each time.
Consider `Cc1ccc(Nc2nc(NCCO)c3ccccc3n2)cc1C`, for which the IC50 in assay [1] and in assay [2] was greater than 30 µM each time.
As for `Cc1ccc(CSCc2ccc(C(=O)NC3CC3)o2)cc1`, the IC50 in assay [1] was 22.3 µM; in assay [2], greater than 30 µM.
In the same order, the values of `CCOc1cccc2sc(N(Cc3cccnc3)C(=O)C3CCCCC3)nc12` are greater than 30 µM and greater than 30 µM.
In the same order, the values of `CCOc1ccc2c(c1)CN(Cc1ccc(Cl)cc1)CO2` are greater than 30 µM and greater than 30 µM.
In the same order, the values of `CCc1c(C)c(=N)c2ccccc2n1C` are greater than 30 µM and greater than 30 µM.
As for `CN1CCN(c2ccc(Nc3c4ccccc4nc4ccccc34)cc2)CC1`, the half-maximal inhibitory concentration (IC50) in assay [1] and in assay [2] was greater than 30 µM throughout.
Regarding `COc1cc2c(cc1OC)C1=NNC(=O)C1=NC(C)(C)C2`, the IC50 in assay [1] and in assay [2] was greater than 30 µM throughout.
Take `Cc1cc(C=C2SC(=Nc3ccccc3)N(C3CCCC3)C2=O)c(C)n1-c1ccc(Cl)cc1`: the IC50 in assay [1] and in assay [2] was greater than 30 µM throughout.
Take `CCCCCCOC(=O)C1=C(C)NC(=O)NC1c1ccccc1F` (stereo unspecified): the half-inhibitory concentration (IC50) in assay [1] and in assay [2] was greater than 30 µM in each case.
For `CN(C)CCCNCc1ccc(-c2ccc(F)c(Cl)c2)o1`, the concentration for half-maximal inhibition (IC50) in assay [1] and in assay [2] was greater than 30 µM in each case.
As to `CCC(C)NCC(O)(c1ccc(Cl)cc1)c1ccc(Cl)cc1` (stereo unspecified), the IC50 in assay [1] and in assay [2] was greater than 30 µM each time.
For the molecule `Cc1cc(NC(=O)c2ccc(-c3ccccc3)cc2)no1`, the values for the IC50 in assay [1] and in assay [2] were 21.1 µM and greater than 30 µM, respectively.
On to `Cc1sc(NC(=O)c2ccco2)c(C(c2cccnc2)N2CCC(Cc3ccccc3)CC2)c1C` (stereo unspecified), for which the IC50 in assay [1] and in assay [2] was greater than 30 µM throughout.
Regarding `Cc1cc(NC(=O)c2cccc(C(F)(F)F)c2)n(-c2nc(-c3ccc4c(c3)OCO4)cs2)n1`, the half-maximal inhibitory concentration (IC50) in assay [1] and in assay [2] was greater than 30 µM throughout.
For `Cc1cc(N2CCCC2)nc(Nc2ccc(NC(=O)CCc3ccccc3)cc2)n1`, the IC50 in assay [1] and in assay [2] was greater than 30 µM throughout.
For `CCOc1cc2c(cc1OCC)C(c1cc(Cl)c(O)c(OCC)c1)NCC2` (stereo unspecified), the IC50 in assay [1] and in assay [2] was greater than 30 µM each time.
As to `CCC(O)c1ccc(Br)cc1NC(=O)c1cccc(Cl)c1` (stereo unspecified), the IC50 in assay [1] and in assay [2] was greater than 30 µM throughout.
Regarding `O=C(c1ccccc1F)N(Cc1ccc(Cl)cc1)c1ccccn1`, the IC50 in assay [1] and in assay [2] was greater than 30 µM throughout.
Turning to `CCOC(=O)C1=C(c2ccccc2)N=c2sc(=Cc3cc(C)n(-c4ccc(F)cc4)c3C)c(=O)n2C1c1cccc(OC)c1OC` (stereo unspecified), the IC50 in assay [1] and in assay [2] was greater than 30 µM throughout.
In the case of `CCC(c1ccccc1)c1nn2c(-c3cccs3)nnc2s1` (stereo unspecified), the half-maximal inhibitory concentration (IC50) in assay [1] and in assay [2] was greater than 30 µM each time.
With `O=C(Nc1cccc(C(F)(F)F)c1)c1cc(Cl)ccc1O`, the half-inhibitory concentration (IC50) in assay [1] and in assay [2] was greater than 30 µM in each case.
Take `COc1cc(C(=O)Nc2nc3c(cc4c5c(cccc53)CC4)s2)cc(OC)c1OC`: the IC50 in assay [1] and in assay [2] was greater than 30 µM in each case.
Consider `CCOc1ccc(-c2nonc2NC(=O)c2cccc(C)c2)cc1OCC`, for which the IC50 in assay [1] and in assay [2] was greater than 30 µM in each case.
Turning to `O=C(Nc1ccsc1C(=O)NC1CCCCC1)c1ccc(F)cc1`, the IC50 in assay [1] and in assay [2] was greater than 30 µM each time.
For the molecule `CCCN(CCC)CC(O)COc1ccccc1C(=O)Nc1ccccc1` (stereo unspecified), the IC50 in assay [1] and in assay [2] was greater than 30 µM each time.
As for `COc1ccc2c(=O)cc(C(Cl)(Cl)Cl)oc2c1`, the IC50 is 6.45 µM in assay [1] and greater than 30 µM in assay [2].
For `CCOc1ccccc1CN1CCc2nc3cc(C(C)(C)C)nn3c(O)c2C1`, the IC50 in assay [1] and in assay [2] was greater than 30 µM in each case.
For the molecule `COc1cc(CNCCc2ccc(Cl)cc2)cc(OC)c1O`, the half-maximal inhibitory concentration (IC50) in assay [1] and in assay [2] was greater than 30 µM throughout.
Turning to `COc1ccc(C2C(C(=O)Nc3cccc(OC)c3)c3ccccc3C(=O)N2C2CCCCC2)cc1` (stereo unspecified), the IC50 in assay [1] and in assay [2] was greater than 30 µM each time.
On to `COc1ccc(C(=O)C2CC2c2ccc(Cl)cc2)cc1` (stereo unspecified), for which the concentration for half-maximal inhibition (IC50) in assay [1] and in assay [2] was greater than 30 µM each time.
Take `CN1c2ccccc2N(C)C1c1ccc2c(c1)OCO2`: the IC50 in assay [1] and in assay [2] was greater than 30 µM in each case.
For `O=C(CCc1ccccc1)c1ccccc1OCC(O)CN1CCCCC1` (stereo unspecified), the IC50 in assay [1] and in assay [2] was greater than 30 µM throughout.
With `COc1cccc(Nc2nc(NCCO)c3ccccc3n2)c1`, the IC50 in assay [1] and in assay [2] was greater than 30 µM throughout.
For the molecule `COc1cccc(-c2nn(C)c3sc(C(=O)NCCN4CCN(c5ccccc5F)CC4)cc23)c1`, the IC50 in assay [1] and in assay [2] was greater than 30 µM in each case.
Take `Cc1cc(C)cc(Nc2cc(C)nc3nc(C(F)(F)F)nn23)c1`: the concentration for half-maximal inhibition (IC50) in assay [1] and in assay [2] was greater than 30 µM throughout.
In the case of `CCCc1cc(O)c2c3c(c(=O)oc2c1)CN(C)CC3`, the IC50 in assay [1] and in assay [2] was greater than 30 µM throughout.
Consider `Nc1nc(Nc2cccc(F)c2)nc2ccccc12`, for which the results for the IC50 in assay [1] and in assay [2] were 29 µM and greater than 30 µM, respectively.
In the same order, the values of `CN(C)CCNc1cc(-c2ccccc2)nc2ccccc12` are 3.05 µM and greater than 30 µM.
On to `COc1ccc2nc(N)nc(C)c2c1`, for which the IC50 in assay [1] and in assay [2] was greater than 30 µM each time.
`CCN1CCN(Cc2ccc(NC(=O)c3cc4ccc5cccnc5c4[nH]3)cc2)CC1`: the IC50 was 3.85 µM in assay [1] and greater than 30 µM in assay [2].
`Cc1ccc(N2C(=O)C3C(C2=O)C2(c4ccccc4)C(=O)C3(c3ccccc3)C(c3ccccc3)=C2c2ccccc2)cc1` (stereo unspecified): the 50% inhibitory concentration (IC50) in assay [1] and in assay [2] was greater than 30 µM throughout.
For the molecule `COCCN(C(=O)Cc1cccs1)C(C(=O)NCc1ccc(OC)cc1)c1ccc(C(C)C)cc1` (stereo unspecified), the half-maximal inhibitory concentration (IC50) in assay [1] and in assay [2] was greater than 30 µM each time.
Regarding `CCCN(CCC)CCCNC(=O)c1cc2c(-c3ccc(OC)c(OC)c3)nn(C)c2s1`, the IC50 in assay [1] and in assay [2] was greater than 30 µM each time.
Regarding `CCCCNc1nc(NC(C)(C)C)nc(NC(C)(C)C)n1`, the IC50 in assay [1] and in assay [2] was greater than 30 µM throughout.
As to `CCOC(=O)C1=C(C)N=c2sc(=Cc3ccccc3O)c(=O)n2C1c1ccc(OC)c2ccccc12` (stereo unspecified), the IC50 in assay [1] and in assay [2] was greater than 30 µM throughout.
Consider `FC(F)(F)c1cccc(CNC2CCN(CCc3ccccc3)CC2)c1`, for which the IC50 in assay [1] and in assay [2] was greater than 30 µM in each case.
As for `CCOc1ccc(-c2nc(NC(=O)c3cccc(S(C)(=O)=O)c3)sc2C)cc1`, the half-maximal inhibitory concentration (IC50) in assay [1] and in assay [2] was greater than 30 µM each time.
With `O=C(Nc1ccc(Cl)cc1C(=O)Nc1ccncc1)c1ccc(Cl)cc1Cl`, the IC50 was 19 µM in assay [1] and greater than 30 µM in assay [2].
In the same order, the values of `COc1ccc2c(c1)C1(Nc3ccccc3-c3nc4ccccc4n31)C(=O)N2` (stereo unspecified) are greater than 30 µM and greater than 30 µM.
In the same order, the values of `c1ccc(CNc2nc(Nc3ccccc3)nc3ccccc23)cc1` are greater than 30 µM and greater than 30 µM.
In the same order, the values of `O=C(CCl)NCCOc1ccc(Cl)cc1Cl` are greater than 30 µM and greater than 30 µM.
With `O=C(NCC(c1ccsc1)N1CCCCCC1)c1ccc(C(F)(F)F)cc1` (stereo unspecified), the IC50 in assay [1] and in assay [2] was greater than 30 µM each time.
On to `C=CC12CCN(CC1)C(C(O)c1ccnc3ccc(OC)cc13)C2` (stereo unspecified), for which the IC50 in assay [1] and in assay [2] was greater than 30 µM each time.
Take `CCN1CCN(c2cc(C)c3cc(NC(=O)c4ccc(OC)c(OC)c4)ccc3n2)CC1`: the IC50 in assay [1] and in assay [2] was greater than 30 µM throughout.
`COc1ccc(C=C2SC(=N)N(c3ccccc3OC)C2=O)cc1`: the IC50 in assay [1] and in assay [2] was greater than 30 µM throughout.
